# Measurements reported in ChEMBL document CHEMBL1142888, “Synthesis, antimicrobial, and anti-inflammatory activities of novel 2-(1-adamantyl)-5-substituted-1,3,4-oxadiazoles and 2-(1-adamantylamino)-5-substituted-1,3,4-thiadiazoles” (2007).
# Columns and labels:
# Staphylococcus aureus [1] = assay: Antimicrobial activity against Staphylococcus aureus IFO 3060 after 24 hrs; format: functional; conditions: IFO 3060, 24 h
# Pseudomonas aeruginosa [2] = assay: Antimicrobial activity against Pseudomonas aeruginosa IFO 3448 at 100 ug/disc; format: functional; conditions: read-out: IZ
# Pseudomonas aeruginosa [3] = assay: microbe, parasite or virus in culture; conditions: IFO 3448
# Description: Antimicrobial activity against Pseudomonas aeruginosa IFO 3448 at 200 ug/disc
# Bacillus subtilis [4] = assay: Antimicrobial activity against Bacillus subtilis IFO 3007 at 100 ug/disc after 24 hrs; format: functional; conditions: IFO 3007, 24 h, read-out: IZ
# Escherichia coli = assay: Antimicrobial activity against Escherichia coli IFO 3301 at 100 ug/disc after 24 hrs; format: functional; conditions: IFO 3301, 24 h, read-out: IZ
# Staphylococcus aureus [5] = assay: Antimicrobial activity against Staphylococcus aureus IFO 3060 at 100 ug/disc after 24 hrs; format: functional; conditions: IFO 3060, 24 h, read-out: IZ
# Bacillus subtilis [6] = assay: Antimicrobial activity against Bacillus subtilis IFO 3007 after 24 hrs; format: functional; conditions: IFO 3007, 24 h
structure (smiles),measurement,setting,value
CC1(C)S[C@@H]2[C@H](NC(=O)[C@H](N)c3ccccc3)C(=O)N2[C@H]1C(=O)O [AMPICILLIN],MIC,Staphylococcus aureus [1],1 µg/mL
same,zone of inhibition at 100 µg/disc,Pseudomonas aeruginosa [2],15 mm
same,MIC,Pseudomonas aeruginosa [3],2 µg/mL
same,zone of inhibition at 100 µg/disc,Bacillus subtilis [4],18 mm
same,zone of inhibition at 100 µg/disc,Escherichia coli,16 mm
same,zone of inhibition at 100 µg/disc,Staphylococcus aureus [5],19 mm
same,MIC,Bacillus subtilis [6],0.5 µg/mL
